Laboratory results as given in patent US8436019B2, “Sulfonyl-piperidin-4-yl methylamine amide analogs as GlyT1 inhibitors, methods for making same, and use of same in treating psychiatric disorders” (Vanderbilt University, priority 2009, dated 2013).

Each molecule was assayed against T1, GlyT1 (Homo sapiens, UniProt P48067) (assay: [14C]-glycine uptake inhibition in JAR cells (human placental choriocarcinoma cells endogenously expressing GlyT1)). Details: inhibition of specific [14C]-glycine uptake; values given in μM; read-out: Potency.
T1 construct: Human placental choriocarcinoma cells endogenously expressing GlyT1; endogenous in cells; host or cells: JAR cells (human placental choriocarcinoma)
T1 sequence (P48067 1-706): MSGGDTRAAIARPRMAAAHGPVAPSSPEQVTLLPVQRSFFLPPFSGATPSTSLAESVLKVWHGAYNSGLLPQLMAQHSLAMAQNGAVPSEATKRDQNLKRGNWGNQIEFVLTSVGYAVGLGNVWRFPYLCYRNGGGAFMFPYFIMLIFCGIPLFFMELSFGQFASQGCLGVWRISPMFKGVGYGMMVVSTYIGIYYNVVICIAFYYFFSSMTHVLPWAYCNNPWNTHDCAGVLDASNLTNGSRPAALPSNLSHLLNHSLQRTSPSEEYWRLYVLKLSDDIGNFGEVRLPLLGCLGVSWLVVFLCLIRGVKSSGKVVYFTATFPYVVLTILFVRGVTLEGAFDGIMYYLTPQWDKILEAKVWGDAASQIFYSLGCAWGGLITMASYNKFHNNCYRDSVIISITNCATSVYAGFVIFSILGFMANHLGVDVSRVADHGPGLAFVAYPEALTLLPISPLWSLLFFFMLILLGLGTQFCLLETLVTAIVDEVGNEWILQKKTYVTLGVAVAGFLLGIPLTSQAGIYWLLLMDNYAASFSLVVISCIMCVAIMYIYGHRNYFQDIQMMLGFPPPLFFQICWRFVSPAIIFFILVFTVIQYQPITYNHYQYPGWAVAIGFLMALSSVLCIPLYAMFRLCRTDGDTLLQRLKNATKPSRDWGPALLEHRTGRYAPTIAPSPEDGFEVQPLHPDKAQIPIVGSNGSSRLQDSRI
Assay type: cell-based
Method: Human placental choriocarcinoma cells endogenously expressing GlyT1 can be cultured using standard conditions. Cells can then be grown at 37° C. in a humidified atmosphere 40-48 hours before the assay. Culture medium can be removed from the culture plate, and cells can be incubated with an amount of TB1A buffer with or without the compounds of the present invention for a sufficient period of time. Then an amount of [^14C]-glycine diluted with TB1A can be added to each well. After incubation the microplates can be sealed and counted. Non-specific uptake of [^14C]-glycine can be determined in the presence of unlabeled glycine. To determine potencies, a range of concentrations of the compounds of the present invention can be added to the cells, followed by the fixed concentration of [^14C]-glycine. The concentration of the present compound that inhibited half of the specific uptake of [^14C]glycine (IC50 value) can be determined from the assay data by non-linear curve fitting.

Compound	IC50
Cn1cnc(S(=O)(=O)N2CCC(C(NC(=O)c3ccc(Cl)cc3Cl)c3ccccc3)CC2)c1 (single isomer, unassigned) [Compound 3b-1]	> 10 µM
CCCS(=O)(=O)N1CCC(C(NC(=O)c2ccc(Cl)cc2Cl)c2ccccc2)CC1 (racemic) [Compound 3a]	1.5 µM
CCCS(=O)(=O)N1CCC(C(NC(=O)c2ccc(Cl)cc2Cl)c2ccccc2)CC1 (single isomer, unassigned) [Compound 3a-1]	> 10 µM
Cn1cnc(S(=O)(=O)N2CCC(C(NC(=O)c3ccccc3Cl)c3ccccc3)CC2)c1 (centres unmarked) [Compound 5a]	> 10 µM
Cn1cc(S(=O)(=O)N2CCC(C(NC(=O)c3ccc(Cl)cc3Cl)c3ccccc3)CC2)cn1 (centres unmarked) [Compound 3c]	2.4 µM

The remaining lines, values ahead:

IC50	Compound
1.6 µM	Cn1cnc(S(=O)(=O)N2CCC(C(NC(=O)c3ccccc3C(F)(F)F)c3ccccn3)CC2)c1 (centres unmarked) [Compound 8b]
1.6 µM	Cn1cnc(S(=O)(=O)N2CCC(C(NC(=O)c3ccc(Cl)cc3Cl)c3ccccn3)CC2)c1 (single isomer, unassigned) [Compound 8a-2]
> 10 µM	Cn1cnc(S(=O)(=O)N2CCC(C(NC(=O)c3c(F)cccc3F)c3ccccn3)CC2)c1 (centres unmarked) [Compound 8c]

Same assay, conditions: inhibition of specific [14C]-glycine uptake; values in nM; read-out: Potency

Compound	IC50
CCCS(=O)(=O)N1CCC(C(NC(=O)c2ccc(Cl)cc2Cl)c2ccccc2)CC1 (single isomer, unassigned) [Compound 3a-2]	0.609 µM
Cn1cnc(S(=O)(=O)N2CCC(CNC(=O)c3ccc(Cl)cc3Cl)CC2)c1 [Compound 9a]	0.174 µM
CC(NC(=O)c1ccc(Cl)cc1Cl)C1CCN(S(=O)(=O)c2cn(C)cn2)CC1 (centres unmarked) [Compound 9b]	0.53 µM

More lines, now with the values ahead:

IC50	Compound
0.853 µM	Cn1cnc(S(=O)(=O)N2CCC(C(NC(=O)c3ccc(F)cc3F)c3ccccn3)CC2)c1 (centres unmarked) [Compound 8e]
0.09 µM	Cn1cnc(S(=O)(=O)N2CCC(C(NC(=O)c3ccc(Cl)cc3Cl)c3ccccn3)CC2)c1 (single isomer, unassigned) [Compound 8a-1]
0.718 µM	Cn1cnc(S(=O)(=O)N2CCC(C(NC(=O)c3ccc(Cl)cc3)c3ccccn3)CC2)c1 (centres unmarked) [Compound 8d]
0.201 µM	Cn1cnc(S(=O)(=O)N2CCC(C(NC(=O)c3ccc(Cl)cc3Cl)c3ccccc3)CC2)c1 (racemic) [Compound 3b]
0.046 µM	Cn1cnc(S(=O)(=O)N2CCC(C(NC(=O)c3ccc(Cl)cc3Cl)c3ccccn3)CC2)c1 (racemic) [Compound 8a]
0.178 µM	Cn1cnc(S(=O)(=O)N2CCC(C(NC(=O)c3ccc(Cl)cc3Cl)c3ccccc3)CC2)c1 (single isomer, unassigned) [Compound 3b-2]
